Assay results published in patent US7939562B2, “Amphiphilic derivatives for the production of vesicles, micelles and complexants, and precursors thereof” (Ben-Gurion University of The Negev Research and Development …, priority 2001, dated 2011).

Assays:
[1] = tested on: bronchial epithelial cells; assay: Uptake of complexed DNA plasmid by cells (confocal microscope); assay type: cell-based; details: DNA plasmid complexed with the amphiphile, compared to non-complexed DNA
Protocol: Purified Derivative 4 was used to complex with a DNA plasmid (purchased from Sigma Chemicals, 5 ng/microliter, stained in FITC; ULSIS Alexa Fluor® 488 Nucleic acid labeling kit) or rhodamine. The complexation was achieved by mixing the amphiphilic Derivative 4 (200 microliters containing […] of the compound) with […] of the DNA sample and letting it shake gently for a short period of time. The mixture is not sonicated to prevent vesicle formation in which the DNA is encapsulated. The sample was then incubated in a culture containing bronchial epithelial cells.

Vesicle size by TEM = assay type: physicochemical; parameters: unit not given here; details: bilayer vesicles
Protocol: Two main methods were used to prepare the vesicles: In method (1), 100-200 μl of the amphiphilic derivative dissolved in methanol was injected into 2-4 ml of an aqueous solution which contained the compound to be encapsulated. The mixture was sonicated in a bath sonicator (Branson 2510) for a short (1,2,5,10 min) or long (60 min) period, depending on the desired vesicle size (dozen or hundred nanometer) and uniformity. In method (2), the amphiphilic derivative dissolved in methanol (250-1000 μl) was added to a 50-ml round-bottom flask, the solvent was removed under reduced pressure by a rotary evaporator and a thin oily film was formed on the flask bottom. An aqueous solution containing the compound desired to encapsulate (1-4 ml) was added to the flask and the mixture was sonicated in a bath sonicator for 1-5 min at 60° C.
TEM (transmission electron microscopy) experiments were carried out using negative staining technique, employing saturated uranyl acetate solution (after centrifuge). The grid was immersed in the vesicle solution for 1.5 minutes and then was stained in the uranyl acetate solution for 1.5 min. The grid (300 mesh copper Formvar/carbon) was then dried at room temperature on filter paper. […]
Derivative 10 was made into vesicles according to Example 41. […] The vesicles were purified by filtration and the presence of radioactivity in the purified sample indicated encapsulation.

[2] = tested on: bronchial epithelial cells; assay: Uptake of vesicle-encapsulated 14C-methylated albumin by cells (radioactivity); assay type: cell-based; details: 14C-methylated albumin encapsulated in vesicles, compared with non-encapsulated albumin
Protocol: Derivative 10 was made into vesicles according to Example 41. […] The same method was used to encapsulate ^14C-methylated albumin (purchased from Sigma Chemicals) by adding 0.2 mg of the tagged albumin. The vesicles were purified by filtration and the presence of radioactivity in the purified sample indicated encapsulation.

CCCCCC(OC(=O)CN(CCCN)CCCCN)C(O)CCCCC(=O)OC (stereo not drawn) [Derivative 4]
uptake of DNA by the cells [1]: significantly greater uptake of DNA

CCCCCCCCCCCC[N+](C)(C)CC(=O)OC(CCCCC)C(O)C/C=C/CC(=O)NCCNC(=O)C/C=C/CC(O)C(CCCCC)OC(=O)C[N+](C)(C)CCCCCCCCCCCC (stereo not drawn) [Derivative 10]
vesicle size (Vesicle size by TEM): 350 | uptake of the albumin by the cells [2]: significantly greater uptake of the albumin
